The values that follow come from patent US20080193379A1, “Radioactive Diagnostic Imaging Agent” (Nihon Medi-Physics Co., Ltd., priority 2005, published 2008).

The conditions of data set [1]: as injection additive; cited from earlier work.
Another data set relates to glucose transporters. To be noted: reported by Heli Teerijoki et al. and A. N. Ouraishi et al.; cited from earlier work.
Data set [2] in a line: Radiolysis stability of 18F-FDG solutions with mannitol: radiochemical purity by TLC (Examples 13-18, Comparative Example 2). The format is physicochemical. To be noted: added at 2.5 mmol/L or higher concentrations. As for the experimental part: The same procedure as in Comparative Example 1 and Examples 1 through 12 was repeated to obtain a ^18F-FDG stock solution (radioactivity=126.3 GBq). To the ^18F-FDG stock solution, physiological saline was added for dilution so that the resulting solution had 92.5 MBq/mL 4.5 hours after preparation. This gave a ^18F-FDG solution.
To 2 mL of the above-obtained ^18F-FDG solution, the mannitol solutions having different concentrations shown in Table 3 were each added in amounts shown in Table 3, and mixed at room temperature to prepare respective sample solutions.
The above-obtained samples were subjected to TLC analysis on the below conditions immediately after the preparation of ^18F-FDG solution (Comparative Example 2 only), and 4.5 and 8.5 hours after the preparation. Radiochemical purity was obtained based on the area percentage of the ^18F-FDG peak. The radiochemical purity at each time point was compared to one another to evaluate stability of the samples.
TLC plate=Silica Gel 60 F254 (under trade name, manufactured by Merck & Co., Inc.)
Developing solvent=acetonitrile/water=19:1
Detector=Radiochromanizer (JTC-R75-21361, manufactured by Aloka)

For data set [3] the following is noted: aqueous solution; reported by Sara Goldstein et al.; cited from earlier work.

Regarding `OC[C@H]1O[C@H](O[C@H]2[C@H](O)[C@@H](O)[C@H](O)O[C@@H]2CO)[C@H](O)[C@@H](O)[C@@H]1O` [maltose], the “Maximum dose for intravenous injection” value in data set [1] is listed as 10 g.

On to `O=C(CO)[C@@H](O)[C@H](O)[C@H](O)CO` [fructose], for which, in data set [1], the “Maximum dose for intravenous injection” value is 0.9 g.

For the compound `OC[C@@H](O)[C@@H](O)[C@H](O)[C@H](O)CO` [mannitol], in the data set on glucose transporters, the “Substrate for glucose transporters” value was “does not serve as a substrate for glucose transporters”. The “Prevention of the decrease in radiochemical purity of 18F-FDG caused by radiolysis” value in data set [2] was “can significantly prevent the decrease in the radiochemical purity”. For the same compound, the “Scavenger of OH radicals” value in data set [3] is “acts as a scavenger of OH radials”. In addition, the “Maximum dose for intravenous injection” value in data set [1] is on record as 1.2 g. Regarding `OC[C@H]1O[C@@H](O[C@H]2[C@H](O)[C@@H](O)C(O)O[C@@H]2CO)[C@H](O)[C@@H](O)[C@H]1O` (stereo partly drawn) [lactose], the “Maximum dose for intravenous injection” value in data set [1] is 1.25 g. As to `OC[C@@H](O)[C@@H](O)[C@H](O)[C@@H](O)CO` [sorbitol], the “Maximum dose for intravenous injection” value in data set [1] is reported as 1.5 g. On to `OC[C@@H](O)[C@H](O)[C@@H](O)CO` [xylitol], for which the “Maximum dose for intravenous injection” value in data set [1] was 0.2 g.
